{"source": "paper PMC11133798", "about": "“Vosoritide treatment for children with hypochondroplasia: a phase 2 trial” (eClinicalMedicine, 2024)", "key": {"[1]": {"system": "children with hypochondroplasia", "assay": "Parent-reported quality of life, QoLISSY scale", "assay_type": "in vivo, human", "procedure": "Secondary outcomes included the change in body proportions as measured by sitting height to standing height ratio and arm span minus standing height, as well as the change in bone age to chronological age ratio after 12 months of therapy. Sitting height was measured three times at each visit using a sitting height table. The average of the three values was used. Sitting height to standing height ratio and arm span minus standing height were standardized for age and sex using available reference data and SDS were calculated.[11]^,[12] Bone age X-rays were read by a single reviewer who was blinded to participant ID, age and time point. Exploratory endpoints included pharmacokinetic parameters, pharmacodynamic markers including collagen X biomarker (CXM) levels and urine cGMP production, and changes in quality of life as measured by the QoLISSY scale.[13] CXM levels in serum were measured in duplicate via an ELISA assay at the Shriners Hospitals for Children in Portland, Oregon as previously described.[14] The average of the two values was used for analysis. Urine samples were obtained for cGMP measurement at baseline and 60, 120, and 240 min after vosoritide injections at the Day 1, Month 6 and Month 12 visits. cGMP levels were assayed at ICON Laboratories (Farmingdale, NY) and were normalized to urine creatinine levels at each time point.\nNo formal power calculations were done for this proof of principle study. Sample size was determined based on logistical feasibility. Medication adherence was calculated using the number of returned empty vials divided by the number of days of prescribed therapy. Demographics and clinical characteristics were summarized with mean and standard deviation (SD), median and interquartile (IQR) for numerical variables, frequency and proportion for categorical variables. Primary and secondary clinical outcomes were summarized with mean (SD) for the 6-month observation period and the 12-month treatment period. Paired t-tests were carried out to compare the difference between the treatment and observation periods. The corresponding p-value and 95% confidence interval (CI) were reported. Box and whisker plots were used for both primary endpoints (annualized growth velocity and height SDS) and exploratory endpoints (CXM and cGMP) to visualize the trends for the change from baseline to each of the follow-up visits. Safety data (AEs) were summarized as count and percentage of patients as well as the number of total occurrences per each listed AE for the observation period and the treatment period, respectively. As exploratory analyses, the primary endpoints were stratified based on age, baseline growth velocity and baseline height SDS. The summaries of mean (SD) for each visit, mean differences between treatment and observation periods, and the corresponding p-value and 95% CI were all reported. Parent reported quality of life using the QoLISSY scale was also reported with a similar tabular format. Data were analyzed using SAS for Windows version 9.4 (SAS Institute Inc., Cary, NC). A two-sided test with a significance level of 0.05 was used for all hypothesis tests."}, "[2]": {"system": "neutral endopeptidase (NEP)", "settings": "conveyed by Pro-Gly addition on the N-terminus; protocol statement, no data shown; cited from earlier work", "text": "Third, Dr. Dauber (the PI) will p ..."}, "[3]": {"system": "subjects of trials to date", "settings": "in vivo; cited from earlier work", "description": "We will perform a single arm, open‐ label, Phase I/II study of vosoritide in patients with the selected genetic causes of short stature identified above."}}}
{"sequence": "PGQEHPNARKYKGANKKGLSKGCFGLKLDRIGSMSGLGC (disulfide) [vosoritide]", "values": [{"measurement": "Overall or domain specific parental-reported quality of life (QoLISSY)", "setting": "[1]; 12 months of treatment", "result": "no significant changes"}, {"measurement": "QoLISSY Coping, change during treatment period", "setting": "[1]; mean, 95% CI (-7.29, 3.75), p=0.51", "result": -1.77}, {"measurement": "QoLISSY Belief, change during treatment period", "setting": "[1]; mean, 95% CI (-9.30, 10.39), p=0.91", "result": 0.54}, {"measurement": "QoLISSY Physical, change during treatment period", "setting": "[1]; mean, 95% CI (-10.25, 7.47), p=0.75", "result": -1.39}, {"measurement": "QoLISSY Total (Social, Emotional, Coping), change during treatment period", "setting": "[1]; mean, 95% CI (-10.55, 4.09), p=0.37", "result": -3.23}, {"measurement": "QoLISSY Emotional, change during treatment period", "setting": "[1]; mean, 95% CI (-12.12, 3.01), p=0.23", "result": -4.56}, {"measurement": "QoLISSY Social, change during treatment period", "setting": "[1]; mean, 95% CI (-12.43, 4.96), p=0.38", "result": -3.74}, {"measurement": "QoLISSY Total (Social, Emotional, Coping), Month 6", "setting": "[1]; parent-reported, mean, SD (16.08), Day 1 60.33 (18.99)", "result": 61.73}, {"measurement": "QoLISSY Treatment, Month 12", "setting": "[1]; parent-reported, mean, SD (16.43)", "result": 38.23}, {"measurement": "QoLISSY Total (Social, Emotional, Coping), Month 12", "setting": "[1]; parent-reported, mean, SD (17.99)", "result": 57.10}, {"measurement": "QoLISSY Treatment, Month 6", "setting": "[1]; parent-reported, mean, SD (18.36)", "result": 37.86}, {"measurement": "QoLISSY Emotional, Month 12", "setting": "[1]; parent-reported, mean, SD (18.44)", "result": 62.37}, {"measurement": "QoLISSY Coping, Month 12", "setting": "[1]; parent-reported, mean, SD (18.71)", "result": 35.79}, {"measurement": "QoLISSY Physical, Month 6", "setting": "[1]; parent-reported, mean, SD (18.77), Day 1 52.60 (18.22)", "result": 55.38}, {"measurement": "QoLISSY Social, Month 6", "setting": "[1]; parent-reported, mean, SD (19.50), Day 1 61.46 (21.05)", "result": 61.20}, {"measurement": "QoLISSY Physical, Month 12", "setting": "[1]; parent-reported, mean, SD (20.09)", "result": 51.22}, {"measurement": "QoLISSY Emotional, Month 6", "setting": "[1]; parent-reported, mean, SD (20.12), Day 1 66.93 (22.25)", "result": 68.62}, {"measurement": "QoLISSY Social, Month 12", "setting": "[1]; parent-reported, mean, SD (20.40)", "result": 57.72}, {"measurement": "QoLISSY Coping, Month 6", "setting": "[1]; parent-reported, mean, SD (20.45), Day 1 38.14 (19.61)", "result": 35.61}, {"measurement": "QoLISSY Belief, Month 12", "setting": "[1]; parent-reported, mean, SD (22.98)", "result": 66.93}, {"measurement": "QoLISSY Belief, Month 6", "setting": "[1]; parent-reported, mean, SD (29.10), Day 1 65.22 (28.63)", "result": 62.23}, {"measurement": "Degradation by neutral endopeptidase (NEP)", "setting": "[2]", "result": "resistance to neutral endopeptidase (NEP) degradation"}, {"measurement": "Serious hypersensitivity reactions", "setting": "[3]", "result": "no serious hypersensitivity reactions"}, {"measurement": "Subjects having some form of injection site reaction", "setting": "[3]", "result": "~ 85%"}, {"measurement": "Subjects with an event of hypotension in study 111-205", "setting": "[3]", "result": 3.3, "unit": "%"}, {"measurement": "Subjects with hypotension documented on vital sign measurement", "setting": "[3]", "result": "~ 45%"}]}
